# Like-named read-outs stand apart in the source and are kept apart here.
# Experiments:
# [1] = system: 2D rat cortical cultures; conditions: rNFA mc5 hit call; cytotoxicity LDH; cited from earlier work; on hitc CCTE Shafer MEA dev active electrodes number: key: 1 (active); 0 (inactive); on hitc CCTE Shafer MEA dev burst duration mean: key: 1 (active); 0 (inactive); on hitc CCTE Shafer MEA dev burst rate: key: 1 (active); 0 (inactive); on hitc CCTE Shafer MEA dev bursting electrodes number: key: 1 (active); 0 (inactive); on hitc CCTE Shafer MEA dev correlation coefficient mean: key: 1 (active); 0 (inactive); on hitc CCTE Shafer MEA dev firing rate mean: key: 1 (active); 0 (inactive); on hitc CCTE Shafer MEA dev inter network spike interval mean: key: 1 (active); 0 (inactive); on hitc CCTE Shafer MEA dev interburst interval mean: key: 1 (active); 0 (inactive); on hitc CCTE Shafer MEA dev mutual information norm: key: 1 (active); 0 (inactive); on hitc CCTE Shafer MEA dev network spike duration std: key: 1 (active); 0 (inactive); on hitc CCTE Shafer MEA dev network spike number: key: 1 (active); 0 (inactive); on hitc CCTE Shafer MEA dev network spike peak: key: 1 (active); 0 (inactive); on hitc CCTE Shafer MEA dev per burst interspike interval: key: 1 (active); 0 (inactive); on hitc CCTE Shafer MEA dev per burst spike percent: key: 1 (active); 0 (inactive)
# [2] = system: 2D rat cortical cultures; conditions: rNFA mc5 hit call; cytotoxicity AlamarBlue; cited from earlier work; on hitc CCTE Shafer MEA dev active electrodes number: key: 1 (active); 0 (inactive); on hitc CCTE Shafer MEA dev burst duration mean: key: 1 (active); 0 (inactive); on hitc CCTE Shafer MEA dev burst rate: key: 1 (active); 0 (inactive); on hitc CCTE Shafer MEA dev bursting electrodes number: key: 1 (active); 0 (inactive); on hitc CCTE Shafer MEA dev correlation coefficient mean: key: 1 (active); 0 (inactive); on hitc CCTE Shafer MEA dev firing rate mean: key: 1 (active); 0 (inactive); on hitc CCTE Shafer MEA dev inter network spike interval mean: key: 1 (active); 0 (inactive); on hitc CCTE Shafer MEA dev interburst interval mean: key: 1 (active); 0 (inactive); on hitc CCTE Shafer MEA dev mutual information norm: key: 1 (active); 0 (inactive); on hitc CCTE Shafer MEA dev network spike duration std: key: 1 (active); 0 (inactive); on hitc CCTE Shafer MEA dev network spike number: key: 1 (active); 0 (inactive); on hitc CCTE Shafer MEA dev network spike peak: key: 1 (active); 0 (inactive); on hitc CCTE Shafer MEA dev per burst interspike interval: key: 1 (active); 0 (inactive)
# [3] = system: human iPSC-derived 3D BrainSpheres; test: BrainSphere MEA assay (HD-MEA, 13-day exposure, concentration-response); format: cell-based; conditions: for EC (benchmark response 1.349 SD): 312 h; for AC50: concentration at 50% maximal activity, Supplement 3 prints it also for curves with hit call 0; on hitc Mean.Spheroid.Burst.Duration: key: 1 (active); 0 (inactive); on hitc Mean.Spheroid.Burst.ISI: key: 1 (active); 0 (inactive); on hitc Mean.Spheroid.Burst.Peak.Firing.Rate: key: 1 (active); 0 (inactive); on hitc Mean.Spheroid.Firing.Rate: key: 1 (active); 0 (inactive); on hitc Mean.Spheroid.IBI: key: 1 (active); 0 (inactive); on hitc Mean.Spheroid.Nonburst.ISI: key: 1 (active); 0 (inactive); on hitc Mean.Spheroid.Spikes.per.Burst.per.Electrode: key: 1 (active); 0 (inactive); on hitc Mean.Spheroid.Spikes.per.Burst: key: 1 (active); 0 (inactive); on hitc Spheroid.Burst.Frequency: key: 1 (active); 0 (inactive); on hitc Spheroid.Spike.Amplitude.90th.Percentile: key: 1 (active); 0 (inactive)
# Protocol: A volume of 1 ml of Tergazyme (1% solution in deionized water) was added to each well of the MaxTwo 6-Well Plate (MaxWell Biosystems) and incubated overnight under constant gyratory shaking (88 RPM) at 37 °C and 5% CO2. The next day, Tergazyme solution was removed, and plates were washed with distilled water and ethanol. After remaining ethanol was evaporated, wells were washed with PBS. Then, 200 µl of Poly-D-Lysine (Gibco, A38904 - 01) was added on top of the electrodes and incubated at 37 °C and 5% CO2 for 3 h (humidified). Poly-D-Lysine was then removed, and wells were coated with 100 µl of 0.1 mg/ml laminin coating solution (Sigma-Aldrich, L2020 - 1 mg) and incubated for 2 h at 37 ℃ and 5% CO2 (humidified). The laminin was removed after incubation. Using a 1 ml micropipette, 1 ml of medium containing BrainSpheres (7 weeks differentiated), approximately 25 BrainSpheres per ml, was plated on top of the HD-MEA chip (Fig. 1A). Afterwards, the plate was placed in an incubator at 37 °C and 5% CO2 and moved in circles to accumulate the BrainSpheres on top of the electrode area (Fig. 1A). The plate was kept in an incubator (humidified) for 2 days to allow attachment of the BrainSpheres with no gyratory shaking of the plates.
# The MaxTwo high-density microelectrode array system (MaxWell Biosystems AG, Zurich, Switzerland) was used to measure neural activity with MaxTwo 6-well plates, where every well includes an integrated chip with 26,400 platinum electrodes arranged in an area of 3.85 × 2.10 mm^2 ([…]) (Muller et al. [2015]). The data were recorded and analyzed with the MaxLab Live Software (version 22.2.22). First, the MaxLab live ActivityScan Assay was used to identify the activity and positioning of the BrainSpheres on the array by scanning all the 26,400 electrodes in 29 configurations in a well (Assay Parameters: Configuration = Full; Recording time per configuration = 60 s (s)). The settings gain = 512, high-pass-filter (HPF): ~ 1 Hz and spike threshold = 5 X root-mean square (RMS) noise were used for all HD-MEA recordings. Circular regions of interest (ROI) were manually selected in the Activity Map where neuronal activity was apparent by an increased activity (Fig. 2). Over the course of the 13-day experiment, the same selected regions and electrodes were measured using the MaxLab Live Network Assay (600 s recording time).
# A custom analysis framework was used to extract the MaxLab Live neuronal metrics for the individual BrainSpheres. For this, electrodes comprising a single ROI (i.e., individual BrainSphere; Fig. 2D) were grouped using distance-based clustering (fcluster method of Scipy library, Python 3.7) and neural metrics were calculated for the clustered electrodes for every ROI separately. Figure 2E presents a raster plot illustrating the activity associated with individual Regions of Interest (ROIs). […] Ten MaxLab Live neural metrics (endpoints) were evaluated from the MaxLab live ActivityScan and Network Assay in this study. See Table 3 for the endpoint definitions, tuned parameters, and activity type (general versus network connectivity).
# The BrainSphere MEA assay measured changes in neural activity during a 13-day chemical exposure. The first recording day of the concentration–response screening protocol (day of exposure (DOE) 0) occurred after 7 weeks of BrainSphere differentiation, 48 h after plating on HD-MEA plates (Fig. 1B). The study included at least three biological replicates (one well per plate) from separate experiments (e.g., three different plates on three different days) and each well included multiple BrainSpheres which were considered technical replicates.
# [4] = system: 2D rat cortical cultures; conditions: cited from earlier work; for AC50: rNFA mc5; on hitc CCTE Shafer MEA dev active electrodes number: key: 1 (active); 0 (inactive); on hitc CCTE Shafer MEA dev burst duration mean: key: 1 (active); 0 (inactive); on hitc CCTE Shafer MEA dev burst rate: key: 1 (active); 0 (inactive); on hitc CCTE Shafer MEA dev bursting electrodes number: key: 1 (active); 0 (inactive); on hitc CCTE Shafer MEA dev correlation coefficient mean: key: 1 (active); 0 (inactive); on hitc CCTE Shafer MEA dev firing rate mean: key: 1 (active); 0 (inactive); on hitc CCTE Shafer MEA dev inter network spike interval mean: key: 1 (active); 0 (inactive); on hitc CCTE Shafer MEA dev interburst interval mean: key: 1 (active); 0 (inactive); on hitc CCTE Shafer MEA dev mutual information norm: key: 1 (active); 0 (inactive); on hitc CCTE Shafer MEA dev network spike duration std: key: 1 (active); 0 (inactive); on hitc CCTE Shafer MEA dev network spike number: key: 1 (active); 0 (inactive); on hitc CCTE Shafer MEA dev network spike peak: key: 1 (active); 0 (inactive); on hitc CCTE Shafer MEA dev per burst interspike interval: key: 1 (active); 0 (inactive)
# [5] = AUC over 13-day exposure, tcplfit2
# [6] = tcplfit2 BMD at benchmark response (1.349*SD of baseline controls)
# [7] = tcplfit2 output ACC, activity cutoff in Supplemental Table 1
structure (smiles),measurement,setting,value
CC1(C)[C@H](C(=O)O[C@H](C#N)c2cccc(Oc3ccccc3)c2)[C@@H]1C=C(Br)Br [Deltamethrin],hitc CCTE_Shafer_MEA_dev_LDH,[1],0
same,hitc CCTE_Shafer_MEA_dev_AB,[2],0
same,EC50,"[3]; 5th percentile across active AC50 values per chemical, read-out: Minimum potency",1.6 µM
same,Difference of minimum potency between BrainSphere MEA assay and rNFA,"[3]; 5th percentile of AC50 values by chemical, above 0.5 = more potent in the rNFA",≤ 0.5 log10 µM
same,hitc Mean.Spheroid.Burst.Duration,[3]; [5],1
same,hitc Mean.Spheroid.Burst.ISI,[3]; [5],1
same,hitc Mean.Spheroid.Burst.Peak.Firing.Rate,[3]; [5],1
same,hitc Mean.Spheroid.Firing.Rate,[3]; [5],1
same,hitc Mean.Spheroid.IBI,[3]; [5],1
same,hitc Mean.Spheroid.Nonburst.ISI,[3]; [5],1
same,hitc Mean.Spheroid.Spikes.per.Burst,[3]; [5],1
same,hitc Mean.Spheroid.Spikes.per.Burst.per.Electrode,[3]; [5],1
same,hitc Spheroid.Burst.Frequency,[3]; [5],1
same,hitc Spheroid.Spike.Amplitude.90th.Percentile,[3]; [5],1
same,EC50,"[3]; Homo sapiens, 5th percentile across active AC50 values per chemical, read-out: Minimum potency",1 µM
same,EC (benchmark response 1.349 SD),"[3]; Homo sapiens, tcplfit2 BMD at benchmark response (1.349*SD of baseline controls), read-out: BMD Mean.Spheroid.Burst.ISI",7.6 µM
same,EC (benchmark response 1.349 SD),"[3]; Homo sapiens, tcplfit2 BMD at benchmark response (1.349*SD of baseline controls), read-out: BMD Mean.Spheroid.Nonburst.ISI",9.4 µM
same,AC50,"[3]; Homo sapiens, read-out: ac50 Mean.Spheroid.Burst.Duration",3.3 µM
same,AC50,"[3]; Homo sapiens, read-out: ac50 Mean.Spheroid.Burst.ISI",8.4 µM
same,AC50,"[3]; Homo sapiens, read-out: ac50 Mean.Spheroid.Burst.Peak.Firing.Rate",3.8 µM
same,AC50,"[3]; Homo sapiens, read-out: ac50 Mean.Spheroid.Firing.Rate",3.5 µM
same,AC50,"[3]; Homo sapiens, read-out: ac50 Mean.Spheroid.IBI",10 µM
same,AC50,"[3]; Homo sapiens, read-out: ac50 Mean.Spheroid.Nonburst.ISI",9.8 µM
same,AC50,"[3]; Homo sapiens, read-out: ac50 Mean.Spheroid.Spikes.per.Burst",1.9 µM
same,AC50,"[3]; Homo sapiens, read-out: ac50 Mean.Spheroid.Spikes.per.Burst.per.Electrode",1.4 µM
same,AC50,"[3]; Homo sapiens, read-out: ac50 Spheroid.Burst.Frequency",5.9 µM
same,AC50,"[3]; Homo sapiens, read-out: ac50 Spheroid.Spike.Amplitude.90th.Percentile",4 µM
same,EC50,"[3]; Homo sapiens, mean across active AC50 values per chemical, read-out: Mean potency",4.45 µM
same,AC50,[3]; read-out: ac50 Mean.Spheroid.Burst.Duration,3.31 µM
same,AC50,[3]; read-out: ac50 Mean.Spheroid.Burst.ISI,8.39 µM
same,AC50,[3]; read-out: ac50 Mean.Spheroid.Burst.Peak.Firing.Rate,3.77 µM
same,AC50,[3]; read-out: ac50 Mean.Spheroid.Firing.Rate,3.49 µM
same,AC50,[3]; read-out: ac50 Mean.Spheroid.IBI,10.4 µM
same,AC50,[3]; read-out: ac50 Mean.Spheroid.Nonburst.ISI,9.81 µM
same,AC50,[3]; read-out: ac50 Mean.Spheroid.Spikes.per.Burst,1.85 µM
same,AC50,[3]; read-out: ac50 Mean.Spheroid.Spikes.per.Burst.per.Electrode,1.4 µM
same,AC50,[3]; read-out: ac50 Spheroid.Burst.Frequency,5.88 µM
same,AC50,[3]; read-out: ac50 Spheroid.Spike.Amplitude.90th.Percentile,3.97 µM
same,EC50,"[3]; mean across active AC50 values per chemical, read-out: Mean potency",5.23 µM
same,Percent active,[3]; metrics active out of the total number of metrics screened,100%
same,BMD Mean.Spheroid.Burst.Duration,[3]; [6],1.9 µM
same,BMD Mean.Spheroid.Burst.Peak.Firing.Rate,[3]; [6],2.4 µM
same,BMD Mean.Spheroid.Firing.Rate,[3]; [6],3.6 µM
same,BMD Mean.Spheroid.IBI,[3]; [6],9.6 µM
same,BMD Mean.Spheroid.Spikes.per.Burst,[3]; [6],1.2 µM
same,BMD Mean.Spheroid.Spikes.per.Burst.per.Electrode,[3]; [6],0.69 µM
same,BMD Spheroid.Burst.Frequency,[3]; [6],6 µM
same,BMD Spheroid.Spike.Amplitude.90th.Percentile,[3]; [6],1.6 µM
same,ACC Mean.Spheroid.Burst.Duration,[3]; [7],1.7 µM
same,ACC Mean.Spheroid.Burst.ISI,[3]; [7],7 µM
same,ACC Mean.Spheroid.Burst.Peak.Firing.Rate,[3]; [7],2.2 µM
same,ACC Mean.Spheroid.Firing.Rate,[3]; [7],5.2 µM
same,ACC Mean.Spheroid.IBI,[3]; [7],10 µM
same,ACC Mean.Spheroid.Nonburst.ISI,[3]; [7],9.6 µM
same,ACC Mean.Spheroid.Spikes.per.Burst,[3]; [7],2 µM
same,ACC Mean.Spheroid.Spikes.per.Burst.per.Electrode,[3]; [7],0.92 µM
same,ACC Spheroid.Burst.Frequency,[3]; [7],5.1 µM
same,ACC Spheroid.Spike.Amplitude.90th.Percentile,[3]; [7],2.2 µM
same,Hits,"[3]; total number of active endpoints out of 10 MEA activity metrics, 13-day exposure",10
same,AC50,"[4]; aenm active_electrodes_number, read-out: ac50 CCTE_Shafer_MEA_dev_active_electrodes_number",8.89 µM
same,AC50,"[4]; aenm burst_duration_mean, read-out: ac50 CCTE_Shafer_MEA_dev_burst_duration_mean",5.29 µM
same,AC50,"[4]; aenm burst_rate, read-out: ac50 CCTE_Shafer_MEA_dev_burst_rate",3.87 µM
same,AC50,"[4]; aenm bursting_electrodes_number, read-out: ac50 CCTE_Shafer_MEA_dev_bursting_electrodes_number",3.71 µM
same,AC50,"[4]; aenm correlation_coefficient_mean, read-out: ac50 CCTE_Shafer_MEA_dev_correlation_coefficient_mean",2.04 µM
same,AC50,"[4]; aenm firing_rate_mean, read-out: ac50 CCTE_Shafer_MEA_dev_firing_rate_mean",3.1 µM
same,AC50,"[4]; aenm mutual_information_norm, read-out: ac50 CCTE_Shafer_MEA_dev_mutual_information_norm",0.641 µM
same,AC50,"[4]; aenm network_spike_duration_std, read-out: ac50 CCTE_Shafer_MEA_dev_network_spike_duration_std",3.82 µM
same,AC50,"[4]; aenm network_spike_number, read-out: ac50 CCTE_Shafer_MEA_dev_network_spike_number",0.853 µM
same,AC50,"[4]; aenm network_spike_peak, read-out: ac50 CCTE_Shafer_MEA_dev_network_spike_peak",7.54 µM
same,AC50,"[4]; aenm per_burst_interspike_interval, read-out: ac50 CCTE_Shafer_MEA_dev_per_burst_interspike_interval",15 µM
same,AC50,"[4]; aenm per_burst_spike_percent, read-out: ac50 CCTE_Shafer_MEA_dev_per_burst_spike_percent",7.16 µM
same,AC50,"[4]; aenm per_network_spike_spike_number_mean, read-out: ac50 CCTE_Shafer_MEA_dev_per_network_spike_spike_number_mean",3.96 µM
same,AC50,"[4]; aenm per_network_spike_spike_percent, read-out: ac50 CCTE_Shafer_MEA_dev_per_network_spike_spike_percent",1.8 µM
same,AC50,"[4]; aenm spike_duration_mean, read-out: ac50 CCTE_Shafer_MEA_dev_spike_duration_mean",6.4 µM
same,hitc CCTE_Shafer_MEA_dev_active_electrodes_number,"[4]; rNFA mc5 hit call, aenm active_electrodes_number",1
same,hitc CCTE_Shafer_MEA_dev_burst_duration_mean,"[4]; rNFA mc5 hit call, aenm burst_duration_mean",1
same,hitc CCTE_Shafer_MEA_dev_burst_rate,"[4]; rNFA mc5 hit call, aenm burst_rate",1
same,hitc CCTE_Shafer_MEA_dev_bursting_electrodes_number,"[4]; rNFA mc5 hit call, aenm bursting_electrodes_number",1
same,hitc CCTE_Shafer_MEA_dev_correlation_coefficient_mean,"[4]; rNFA mc5 hit call, aenm correlation_coefficient_mean",1
same,hitc CCTE_Shafer_MEA_dev_firing_rate_mean,"[4]; rNFA mc5 hit call, aenm firing_rate_mean",1
same,hitc CCTE_Shafer_MEA_dev_inter_network_spike_interval_mean,"[4]; rNFA mc5 hit call, aenm inter_network_spike_interval_mean",0
same,hitc CCTE_Shafer_MEA_dev_interburst_interval_mean,"[4]; rNFA mc5 hit call, aenm interburst_interval_mean",0
same,hitc CCTE_Shafer_MEA_dev_mutual_information_norm,"[4]; rNFA mc5 hit call, aenm mutual_information_norm",1
same,hitc CCTE_Shafer_MEA_dev_network_spike_duration_std,"[4]; rNFA mc5 hit call, aenm network_spike_duration_std",1
same,hitc CCTE_Shafer_MEA_dev_network_spike_number,"[4]; rNFA mc5 hit call, aenm network_spike_number",1
same,hitc CCTE_Shafer_MEA_dev_network_spike_peak,"[4]; rNFA mc5 hit call, aenm network_spike_peak",1
same,hitc CCTE_Shafer_MEA_dev_per_burst_interspike_interval,"[4]; rNFA mc5 hit call, aenm per_burst_interspike_interval",1
same,hitc CCTE_Shafer_MEA_dev_per_burst_spike_percent,"[4]; rNFA mc5 hit call, aenm per_burst_spike_percent",1
same,hitc CCTE_Shafer_MEA_dev_per_network_spike_spike_number_mean,"[4]; rNFA mc5 hit call, aenm per_network_spike_spike_number_mean",1
same,hitc CCTE_Shafer_MEA_dev_per_network_spike_spike_percent,"[4]; rNFA mc5 hit call, aenm per_network_spike_spike_percent",1
same,hitc CCTE_Shafer_MEA_dev_spike_duration_mean,"[4]; rNFA mc5 hit call, aenm spike_duration_mean",1
